In assay [1] the target is Cyclin-dependent kinase 2/cyclin A (Homo sapiens) (UniProt P24941+P20248+P78396). Nature of the assay: CDK2/cyclinA(h) Eurofins kinase panel. It counts as protein-complex assay. The note with it: Compound concentration 1.0 uM.
Assay [2] deals with Tyrosine-protein kinase JAK1 (Homo sapiens) (UniProt P23458). As to the kind of experiment: JAK1(h) Eurofins kinase panel. The note with it: Compound concentration 1.0 uM.
In assay [3] the target is T1, Tyrosine-protein kinase JAK3 (Homo sapiens) (UniProt P52333).
T1 sequence (whole entry): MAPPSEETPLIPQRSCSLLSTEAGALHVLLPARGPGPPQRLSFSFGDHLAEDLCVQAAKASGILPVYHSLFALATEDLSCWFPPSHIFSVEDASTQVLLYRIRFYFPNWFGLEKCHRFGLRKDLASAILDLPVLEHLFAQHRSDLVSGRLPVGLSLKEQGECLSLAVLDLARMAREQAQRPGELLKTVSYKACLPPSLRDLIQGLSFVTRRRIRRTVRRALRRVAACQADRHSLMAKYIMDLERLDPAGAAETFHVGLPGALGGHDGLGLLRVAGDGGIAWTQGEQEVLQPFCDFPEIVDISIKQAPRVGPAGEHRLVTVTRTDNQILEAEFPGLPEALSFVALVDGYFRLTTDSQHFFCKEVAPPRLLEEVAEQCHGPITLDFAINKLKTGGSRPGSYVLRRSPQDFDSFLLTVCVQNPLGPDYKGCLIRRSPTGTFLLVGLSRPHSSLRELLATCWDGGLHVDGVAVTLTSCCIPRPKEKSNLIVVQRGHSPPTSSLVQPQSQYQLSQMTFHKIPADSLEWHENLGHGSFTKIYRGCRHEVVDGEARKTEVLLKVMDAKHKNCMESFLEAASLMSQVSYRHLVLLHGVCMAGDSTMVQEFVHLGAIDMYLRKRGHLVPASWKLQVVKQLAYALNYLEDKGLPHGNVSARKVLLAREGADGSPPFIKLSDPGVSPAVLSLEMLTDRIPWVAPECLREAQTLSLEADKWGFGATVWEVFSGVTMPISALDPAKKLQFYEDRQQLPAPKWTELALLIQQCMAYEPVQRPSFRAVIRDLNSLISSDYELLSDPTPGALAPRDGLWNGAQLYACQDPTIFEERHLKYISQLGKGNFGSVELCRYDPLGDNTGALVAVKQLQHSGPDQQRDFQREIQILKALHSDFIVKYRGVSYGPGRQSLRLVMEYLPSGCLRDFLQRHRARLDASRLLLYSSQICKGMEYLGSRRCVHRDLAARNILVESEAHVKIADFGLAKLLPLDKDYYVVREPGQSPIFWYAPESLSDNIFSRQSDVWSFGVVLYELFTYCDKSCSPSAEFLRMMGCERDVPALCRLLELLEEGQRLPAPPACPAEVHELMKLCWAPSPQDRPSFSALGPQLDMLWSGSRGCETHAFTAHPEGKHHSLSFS
As to the kind of experiment: JAK3(h) Eurofins kinase panel. The note with it: Compound concentration 1.0 uM.

Assay [4] addresses Tyrosine-protein kinase Lck (Homo sapiens) (UniProt P06239). Nature of the assay: Lck(h) Eurofins kinase panel. The note with it: Compound concentration 1.0 uM.
In assay [5] the target is Serine/threonine-protein kinase MARK1 (Homo sapiens) (UniProt Q9P0L2). As to the kind of experiment: MARK1(h) Eurofins kinase panel. The settings on record: Compound concentration 1.0 uM.
Chain of Serine/threonine-protein kinase MARK1 (Homo sapiens) (Q9P0L2 whole entry, looked up): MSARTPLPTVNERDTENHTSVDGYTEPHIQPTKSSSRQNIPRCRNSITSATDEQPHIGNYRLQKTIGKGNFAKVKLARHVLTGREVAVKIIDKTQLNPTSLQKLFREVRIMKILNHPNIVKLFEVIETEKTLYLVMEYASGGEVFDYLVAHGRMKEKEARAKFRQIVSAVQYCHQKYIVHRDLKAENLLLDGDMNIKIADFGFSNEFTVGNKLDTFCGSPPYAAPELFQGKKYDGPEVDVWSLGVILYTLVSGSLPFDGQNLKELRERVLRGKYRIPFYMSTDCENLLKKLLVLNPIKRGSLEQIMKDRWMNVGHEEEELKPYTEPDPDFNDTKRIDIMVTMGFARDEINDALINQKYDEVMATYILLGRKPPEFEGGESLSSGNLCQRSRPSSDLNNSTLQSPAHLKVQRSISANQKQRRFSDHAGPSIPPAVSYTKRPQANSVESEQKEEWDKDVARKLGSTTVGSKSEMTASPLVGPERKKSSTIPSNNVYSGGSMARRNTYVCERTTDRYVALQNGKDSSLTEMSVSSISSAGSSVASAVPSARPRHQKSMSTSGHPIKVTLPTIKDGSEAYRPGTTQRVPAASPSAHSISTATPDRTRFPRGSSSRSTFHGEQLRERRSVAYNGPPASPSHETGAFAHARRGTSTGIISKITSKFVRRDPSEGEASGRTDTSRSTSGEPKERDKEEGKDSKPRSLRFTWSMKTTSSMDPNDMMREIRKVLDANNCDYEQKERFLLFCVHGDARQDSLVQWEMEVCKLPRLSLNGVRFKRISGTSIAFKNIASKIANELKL
Assay [6] deals with T2, cGMP-dependent protein kinase 2 (Homo sapiens) (UniProt Q13237).
T2 sequence (whole entry): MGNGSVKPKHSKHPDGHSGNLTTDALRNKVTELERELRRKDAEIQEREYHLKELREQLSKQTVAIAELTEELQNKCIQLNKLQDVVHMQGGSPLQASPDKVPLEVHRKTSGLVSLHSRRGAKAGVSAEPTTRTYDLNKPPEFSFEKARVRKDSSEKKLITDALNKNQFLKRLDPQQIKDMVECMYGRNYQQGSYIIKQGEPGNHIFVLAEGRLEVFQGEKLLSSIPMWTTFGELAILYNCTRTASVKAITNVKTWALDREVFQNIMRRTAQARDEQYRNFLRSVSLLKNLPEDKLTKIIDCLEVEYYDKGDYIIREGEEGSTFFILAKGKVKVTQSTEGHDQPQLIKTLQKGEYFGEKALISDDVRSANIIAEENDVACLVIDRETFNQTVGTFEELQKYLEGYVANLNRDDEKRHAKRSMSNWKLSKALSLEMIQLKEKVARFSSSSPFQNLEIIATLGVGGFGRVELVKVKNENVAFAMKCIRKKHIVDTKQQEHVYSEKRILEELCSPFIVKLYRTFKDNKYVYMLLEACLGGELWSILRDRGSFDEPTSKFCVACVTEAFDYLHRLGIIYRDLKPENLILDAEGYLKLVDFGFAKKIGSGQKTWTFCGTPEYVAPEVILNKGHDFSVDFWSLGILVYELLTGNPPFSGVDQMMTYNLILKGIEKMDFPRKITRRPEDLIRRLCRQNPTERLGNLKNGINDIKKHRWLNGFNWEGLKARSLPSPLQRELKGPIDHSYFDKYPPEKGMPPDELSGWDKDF
Nature of the assay: PRKG2(h) Eurofins kinase panel. The settings on record: Compound concentration 1.0 uM.

Assay [7] deals with Tyrosine-protein kinase FRK (Homo sapiens) (UniProt P42685). Nature of the assay: PTK5(h) Eurofins kinase panel. The settings on record: Compound concentration 1.0 uM.
Chain of Tyrosine-protein kinase FRK (Homo sapiens) (P42685 whole entry): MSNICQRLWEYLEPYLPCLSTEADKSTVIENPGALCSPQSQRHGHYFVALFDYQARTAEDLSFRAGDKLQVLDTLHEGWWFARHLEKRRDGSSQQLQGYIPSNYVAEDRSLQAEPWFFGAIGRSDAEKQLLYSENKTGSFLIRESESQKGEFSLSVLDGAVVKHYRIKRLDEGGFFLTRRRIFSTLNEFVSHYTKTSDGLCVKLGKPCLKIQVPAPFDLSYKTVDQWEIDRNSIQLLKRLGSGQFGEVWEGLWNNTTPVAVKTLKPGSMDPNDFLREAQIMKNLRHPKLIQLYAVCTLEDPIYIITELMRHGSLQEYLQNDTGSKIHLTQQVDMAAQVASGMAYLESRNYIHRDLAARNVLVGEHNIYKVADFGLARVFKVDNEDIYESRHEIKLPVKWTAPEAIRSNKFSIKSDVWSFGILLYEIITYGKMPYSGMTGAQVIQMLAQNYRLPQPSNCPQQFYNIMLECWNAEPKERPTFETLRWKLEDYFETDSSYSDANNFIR
Assay [8] deals with T3, Serine/threonine-protein kinase Sgk1 (Homo sapiens) (UniProt O00141).
T3 sequence (whole entry): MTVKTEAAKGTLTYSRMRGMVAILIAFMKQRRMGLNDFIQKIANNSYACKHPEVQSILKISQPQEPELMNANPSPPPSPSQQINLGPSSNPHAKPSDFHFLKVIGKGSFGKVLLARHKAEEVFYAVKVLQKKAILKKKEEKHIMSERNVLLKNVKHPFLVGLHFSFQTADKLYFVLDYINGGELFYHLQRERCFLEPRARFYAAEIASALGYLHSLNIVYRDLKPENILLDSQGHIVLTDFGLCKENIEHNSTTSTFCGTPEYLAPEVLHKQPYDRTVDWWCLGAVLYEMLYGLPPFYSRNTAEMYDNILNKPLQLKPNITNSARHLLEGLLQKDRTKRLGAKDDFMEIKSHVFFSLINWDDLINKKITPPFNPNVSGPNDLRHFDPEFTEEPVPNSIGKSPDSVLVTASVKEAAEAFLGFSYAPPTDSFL
Nature of the assay: SGK(h) Eurofins kinase panel. The note with it: Compound concentration 1.0 uM.

A further assay deals with LS174T. Nature of the assay: LS-174T cell line Proliferation assay. The settings on record: time 3 day. It is filed as functional, Homo sapiens.
For the next assay, the system named is L-363. As to the kind of experiment: L-363 cell line Proliferation assay. It is filed as functional, Homo sapiens. The settings on record: time 3 day.
The test system of a further assay is A-375. As to the kind of experiment: A375 cell line Proliferation assay. It is filed as functional, Homo sapiens. The note with it: time 3 day.

The structures appear in SMILES notation.

The values that follow come from ChEMBL document CHEMBL4507319 (2021).

Chain of Tyrosine-protein kinase JAK1 (Homo sapiens) (P23458 whole entry): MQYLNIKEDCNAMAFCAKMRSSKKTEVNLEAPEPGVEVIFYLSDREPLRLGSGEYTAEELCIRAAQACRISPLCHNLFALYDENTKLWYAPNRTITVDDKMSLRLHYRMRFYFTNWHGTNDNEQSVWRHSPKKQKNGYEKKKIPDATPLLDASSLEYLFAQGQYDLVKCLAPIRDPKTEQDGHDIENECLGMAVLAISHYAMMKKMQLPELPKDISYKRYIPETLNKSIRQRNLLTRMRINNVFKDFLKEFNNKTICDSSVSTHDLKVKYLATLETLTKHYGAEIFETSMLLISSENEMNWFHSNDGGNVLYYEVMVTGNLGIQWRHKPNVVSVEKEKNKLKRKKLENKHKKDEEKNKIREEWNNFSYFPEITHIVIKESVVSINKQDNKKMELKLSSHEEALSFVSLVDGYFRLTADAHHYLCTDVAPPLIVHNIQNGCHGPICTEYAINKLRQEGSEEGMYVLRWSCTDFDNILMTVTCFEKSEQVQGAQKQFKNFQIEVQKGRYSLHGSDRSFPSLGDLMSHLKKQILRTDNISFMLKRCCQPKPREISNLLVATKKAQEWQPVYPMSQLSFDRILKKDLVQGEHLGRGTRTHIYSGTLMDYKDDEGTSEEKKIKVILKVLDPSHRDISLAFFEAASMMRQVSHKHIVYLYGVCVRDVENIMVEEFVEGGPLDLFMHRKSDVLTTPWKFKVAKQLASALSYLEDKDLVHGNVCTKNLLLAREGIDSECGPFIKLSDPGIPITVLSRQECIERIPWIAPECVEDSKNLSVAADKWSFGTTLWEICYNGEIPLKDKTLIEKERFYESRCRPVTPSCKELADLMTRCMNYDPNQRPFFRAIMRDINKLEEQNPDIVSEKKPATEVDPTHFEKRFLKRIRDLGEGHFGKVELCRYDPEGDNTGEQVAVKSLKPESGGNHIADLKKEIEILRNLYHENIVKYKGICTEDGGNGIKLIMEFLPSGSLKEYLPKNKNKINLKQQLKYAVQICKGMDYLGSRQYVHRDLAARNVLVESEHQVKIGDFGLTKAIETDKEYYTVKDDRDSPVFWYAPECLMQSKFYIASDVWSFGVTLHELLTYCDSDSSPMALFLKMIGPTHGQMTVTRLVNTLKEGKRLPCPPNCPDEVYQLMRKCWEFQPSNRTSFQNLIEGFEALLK
Chain of Tyrosine-protein kinase Lck (Homo sapiens) (P06239 2-509 limits assumed): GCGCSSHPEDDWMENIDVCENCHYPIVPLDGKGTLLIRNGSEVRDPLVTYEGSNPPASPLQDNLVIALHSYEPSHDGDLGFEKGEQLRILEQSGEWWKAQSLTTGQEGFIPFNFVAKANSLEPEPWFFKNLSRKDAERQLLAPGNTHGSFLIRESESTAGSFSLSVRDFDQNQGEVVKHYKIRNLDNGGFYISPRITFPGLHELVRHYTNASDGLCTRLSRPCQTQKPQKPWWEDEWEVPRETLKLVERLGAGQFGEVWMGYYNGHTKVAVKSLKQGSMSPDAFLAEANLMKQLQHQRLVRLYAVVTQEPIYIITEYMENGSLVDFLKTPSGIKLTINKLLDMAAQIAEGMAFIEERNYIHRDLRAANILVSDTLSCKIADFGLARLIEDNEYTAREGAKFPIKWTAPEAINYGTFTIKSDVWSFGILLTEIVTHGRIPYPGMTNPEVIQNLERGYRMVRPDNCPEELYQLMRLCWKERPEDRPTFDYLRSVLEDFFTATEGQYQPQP

In the case of `CCc1ccccc1C(=O)Nc1n[nH]c2c(C)c(F)c(C3C(C#N)=C(C)N(C)C(C)=C3C#N)cc12` [BAY-3827], the % residual kinase activity in assay [1] was 100%; in assay [2] it was 98%; in assay [3] it was 93%; in assay [4], 93%; in assay [5], 66%; in [6] it was 79%. The results for the % residual kinase activity in [7] and in assay [8] were 91% and 79%, respectively. Also, the “Cell Proliferation IC50” value in the assay with LS174T is >30 µM; with L-363, 10.8 µM; with A-375 it was 22.8 µM.
